Results: PMC6691401 (Journal of Medicinal Chemistry, 2019)
Like-named read-outs stand apart in the source and are kept apart here.

Legend:
Mab TrmD [1] = target: T1, Mab TrmD (Mycobacteroides abscessus, UniProt B1MDI3); experiment: Native mass spectrometry of ligand binding; conditions: 20 μM Mab TrmD, 100 μM ligand, 5% DMSO
Protocol: Native nanoelectrospray ionization mass spectrometry spectra were recorded on a Synapt HDMS mass spectrometer (Waters, Manchester, UK) modified for studying high masses. Mab TrmD was exchanged into 200 mM ammonium acetate (pH 7.0) solution using Micro Bio-Spin 6 chromatography columns (Bio-Rad, UK). Protein samples were equilibrated at room temperature in the absence or presence of the indicated concentrations of ligands for at least 15 min before analysis. Protein solution (2.5 μL) was injected into a gold-coated borosilicate emitter (Thermo Scientific, UK) for sampling. Typical conditions were capillary voltage 1.5 kV, cone voltage 50 V, trap collision voltage 20 V, transfer collision voltage 20 V, source temperature 20 °C, backing pressure 3–4 mbar, trap pressure 3–4 × 10^–2 mbar, IM (N2) pressure 5–6 × 10^–1 mbar and TOF pressure 7–8 × 10^–7 mbar. All mass spectra were calibrated externally with caesium iodide (10 mg/mL). Data acquisition and processing were performed using MassLynx 4.1 (Waters).

Mab TrmD [2] = target: T1, Mab TrmD; experiment: Isothermal titration calorimetry (ITC); type: binding; conditions: for GE (R^1): group efficiency of R^1; for LE: ligand efficiency; for GE: group efficiency of the added group; for GE (CH2R^1): group efficiency of CH2R^1
Mab TrmD [3] = target: T1, Mab TrmD; experiment: Differential scanning fluorimetry (DSF) thermal shift; type: binding; conditions: 5 mM ligand
Mab TrmD [4] = target: T1, Mab TrmD; set-up: method as in PMID 32602532; conditions: cited from earlier work; for thermal shift (ΔTm): 5 mM ligand; for ΔTm: Table 3, 5 mM ligand and 10 μM Mab TrmD
Mab TrmD [5] = target: T1, Mab TrmD; conditions: ligand efficiency, previously reported, cited from earlier work

T1 sequence (B1MDI3 entry or part of it): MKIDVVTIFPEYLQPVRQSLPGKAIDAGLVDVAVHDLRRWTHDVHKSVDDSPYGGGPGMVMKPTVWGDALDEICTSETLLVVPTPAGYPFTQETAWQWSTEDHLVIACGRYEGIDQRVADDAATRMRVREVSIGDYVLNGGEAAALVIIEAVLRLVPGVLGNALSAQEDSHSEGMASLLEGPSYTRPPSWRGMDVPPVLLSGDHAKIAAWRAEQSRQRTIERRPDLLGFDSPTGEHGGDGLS

## Nc1cc(-c2ccc3ccn(Cc4ccccc4)c3c2)[nH]n1 [Compound 24c, 5-(1-Benzyl-1H-indol-6-yl)-1H-pyrazol-3-amine]
Mab TrmD [1]
  binding to Mab TrmD dimer observed by native MS: entirely doubly bound
Mab TrmD [2]; Table 4
  GE (R^1): 0.15 kcal mol^–1 per heavy atom
  LE: 0.29 kcal mol^–1 per heavy atom
Mab TrmD [2]
  GE: 0.15 kcal mol^–1 per heavy atom
  LE: 0.29 kcal mol^–1 per heavy atom

## COc1cccc(-c2cc(N)n[nH]2)c1 [Compound 19, 5-(3-Methoxyphenyl)-1H-pyrazol-3-amine]
Mab TrmD [3]
  thermal shift (ΔTm): negative thermal shift

## O=C(O)c1ccc2cc[nH]c2c1 [Compound 21, 1H-indole-6-carboxylic acid]
Mab TrmD [4]
  thermal shift (ΔTm): no ΔTm observed
  ΔTm: –0.6 °C

## N#Cc1c(N)n[nH]c1-c1ccc2ccn(Cc3ccc(CN4CCCC4)cn3)c2c1 [Compound 28, 3-Amino-5-(1-((5-(pyrrolidin-1-ylmethyl)pyridin-2-yl)methyl)-1H-indol-6-yl)-1H-pyrazole-4-carbonitrile]
Mab TrmD [5]; Table 6
  LE: 0.32 kcal mol^–1 per heavy atom
Mab TrmD [5]
  LE: 0.32 kcal mol^–1 per heavy atom
Mab TrmD [2]; Table 6
  GE (CH2R^1): 0.17 kcal mol^–1 per heavy atom

## Nc1cc(-c2ccc3cc[nH]c3c2)[nH]n1 [Compound 23, 5-(1H-Indol-6-yl)-1H-pyrazol-3-amine]
Mab TrmD [5]; Table 3
  LE: 0.36 kcal mol^–1 per heavy atom
Mab TrmD [5]
  LE: 0.36 kcal mol^–1 per heavy atom

## COc1ccc(-c2cc(N)[nH]n2)cc1 [Compound 16, 5-(4-methoxyphenyl)-1H-pyrazol-3-amine]
Mab TrmD [4]
  ΔTm: +3.0 °C
Mab TrmD [5]; Table 3
  LE: 0.37 kcal mol^–1 per heavy atom
Mab TrmD [5]
  LE: 0.37 kcal mol^–1 per heavy atom

## Cc1ccc(-c2cc(N)[nH]n2)cc1 [Compound 18, 5-(p-tolyl)-1H-pyrazol-3-amine]
Mab TrmD [4]
  thermal shift (ΔTm): 1.4–1.5 °C
  ΔTm: +1.4 °C

## Nc1cc(-c2ccc3ccn(Cc4ccccn4)c3c2)[nH]n1 [Compound 24f, 5-(1-(Pyridin-2-ylmethyl)-1H-indol-6-yl)-1H-pyrazol-3-amine]
Mab TrmD [5]; Table 4
  LE: 0.30 kcal mol^–1 per heavy atom
Mab TrmD [5]
  LE: 0.30 kcal mol^–1 per heavy atom
Mab TrmD [2]; Table 4
  GE (R^1): 0.18 kcal mol^–1 per heavy atom

## COc1ccc(Cn2ccc3ccc(-c4cc(N)n[nH]4)cc32)cc1 [Compound 24a, 5-(1-(4-Methoxybenzyl)-1H-indol-6-yl)-1H-pyrazol-3-amine]
Mab TrmD [2]; Table 4
  GE (R^1): 0.04 kcal mol^–1 per heavy atom
  LE: 0.24 kcal mol^–1 per heavy atom
Mab TrmD [2]
  LE: 0.24 kcal mol^–1 per heavy atom

## CN1CCCCC1Cn1ccc2ccc(-c3[nH]nc(N)c3C#N)cc21 (stereo not drawn) [Compound 26n, 3-Amino-5-(1-((1-methylpiperidin-2-yl)methyl)-1H-indol-6-yl)-1H-pyrazole-4-carbonitrile]
Mab TrmD [2]; Table 5
  GE (R^1): 0.16 kcal mol^–1 per heavy atom
  LE: 0.34 kcal mol^–1 per heavy atom
Mab TrmD [2]
  LE: 0.34 kcal mol^–1 per heavy atom

## Cc1c(N)n[nH]c1-c1ccc2ccn(Cc3ccc(CN4CCCC4)cc3)c2c1 [Compound 30a, 4-Methyl-5-(1-(4-(pyrrolidin-1-ylmethyl)benzyl)-1H-indol-6-yl)-1H-pyrazol-3-amine]
Mab TrmD [2]; Table 6
  Kd: 2000 ± 310 nM
  LE: 0.27 kcal mol^–1 per heavy atom

## N#Cc1c(N)n[nH]c1-c1ccc2ccn(Cc3ccccn3)c2c1 [Compound 26f, 3-Amino-5-(1-(pyridin-2-ylmethyl)-1H-indol-6-yl)-1H-pyrazole-4-carbonitrile]
Mab TrmD [5]; Table 4
  LE: 0.36 kcal mol^–1 per heavy atom
Mab TrmD [5]
  LE: 0.36 kcal mol^–1 per heavy atom
Mab TrmD [2]; Table 4
  GE (R^1): 0.20 kcal mol^–1 per heavy atom
Mab TrmD [2]
  GE: 0.95 kcal mol^–1 per heavy atom

## N#Cc1c(N)n[nH]c1-c1ccc2ccn(Cc3cccnc3O)c2c1 [Compound 26j, 3-Amino-5-(1-((2-hydroxypyridin-3-yl)methyl)-1H-indol-6-yl)-1H-pyrazole-4-carbonitrile]
Mab TrmD [2]; Table 5
  GE (R^1): 0.03 kcal mol^–1 per heavy atom
  LE: 0.30 kcal mol^–1 per heavy atom
Mab TrmD [2]
  LE: 0.30 kcal mol^–1 per heavy atom

## COC(=O)COc1cccc(COC(=O)c2cn[nH]c2)c1 [Compound 8, 3-(2-Methoxy-2-oxoethoxy)benzyl 1H-Pyrazole-4-carboxylate]
Mab TrmD [2]; Table 2
  LE: 0.32 kcal mol^–1 per heavy atom
Mab TrmD [2]
  LE: 0.32 kcal mol^–1 per heavy atom

## CC(C)N1CCN(Cc2ccc(Cn3ccc4ccc(-c5[nH]nc(N)c5C#N)cc43)cc2)CC1 [Compound 29e, 3-Amino-5-(1-(4-((4-isopropylpiperazin-1-yl)methyl)benzyl)-1H-indol-6-yl)-1H-pyrazole-4-carbonitrile]
Mab TrmD [2]; Table 6
  Kd: 100 ± 24 nM
  LE: 0.28 kcal mol^–1 per heavy atom
Mab TrmD [2]
  LE: 0.28 kcal mol^–1 per heavy atom

## COc1cccc(COC(=O)c2cn[nH]c2)c1 [Compound 7, 3-Methoxybenzyl 1H-Pyrazole-4-carboxylate]
Mab TrmD [2]; Table 1
  LE: 0.39 kcal mol^–1 per heavy atom
Mab TrmD [2]
  LE: 0.39 kcal mol^–1 per heavy atom

## CN1CCN(Cc2ccc(Cn3ccc4ccc(-c5[nH]nc(N)c5C#N)cc43)cc2)CC1 [Compound 29d, 3-Amino-5-(1-(4-((4-methylpiperazin-1-yl)methyl)benzyl)-1H-indol-6-yl)-1H-pyrazole-4-carbonitrile]
Mab TrmD [5]; Table 6
  LE: 0.30 kcal mol^–1 per heavy atom
Mab TrmD [5]
  LE: 0.30 kcal mol^–1 per heavy atom

## OB(O)c1ccc2cc[nH]c2c1 [Compound 20, (1H-indol-6-yl)boronic acid]
Mab TrmD [4]
  ΔTm: +4.0 °C
Mab TrmD [5]; Table 3
  LE: 0.41 kcal mol^–1 per heavy atom
Mab TrmD [5]
  LE: 0.41 kcal mol^–1 per heavy atom

## N#Cc1c(N)n[nH]c1-c1ccc2ccn(Cc3ccc(CN4CCCC4)cc3)c2c1 [Compound 29a, 3-Amino-5-(1-(4-(pyrrolidin-1-ylmethyl)benzyl)-1H-indol-6-yl)-1H-pyrazole-4-carbonitrile]
Mab TrmD [1]
  binding to Mab TrmD dimer observed by native MS: low gas-phase stabilities
Mab TrmD [5]; Table 6
  LE: 0.34 kcal mol^–1 per heavy atom
Mab TrmD [5]
  LE: 0.34 kcal mol^–1 per heavy atom

## CCOC(=O)c1cnn(CC#Cc2cc(COC(=O)c3cn[nH]c3)cc(OC)c2)c1 [Compound 12, Ethyl 1-(3-(3-(((1H-Pyrazole-4-carbonyl)oxy)methyl)-5-methoxyphenyl)prop-2-yn-1-yl)-1H-pyrazole-4-carboxylate]
Mab TrmD [2]; Table 2
  LE: 0.24 kcal mol^–1 per heavy atom
Mab TrmD [2]
  LE: 0.24 kcal mol^–1 per heavy atom

## CCOC(=O)c1cn[nH]c1 [Compound 1, ethyl 1H-pyrazole-4-carboxylate]
Mab TrmD [2]; Table 1
  LE: 0.55 kcal mol^–1 per heavy atom
Mab TrmD [2]
  LE: 0.55 kcal mol^–1 per heavy atom

## N#Cc1c(N)n[nH]c1-c1ccc2ccn(Cc3ccc(CN4CCOCC4)cc3)c2c1 [Compound 29c, 3-Amino-5-(1-(4-(morpholinomethyl)benzyl)-1H-indol-6-yl)-1H-pyrazole-4-carbonitrile]
Mab TrmD [2]; Table 6
  Kd: 190 ± 23 nM
  LE: 0.30 kcal mol^–1 per heavy atom
Mab TrmD [2]
  LE: 0.30 kcal mol^–1 per heavy atom

## CCNC(=O)c1cn[nH]c1 [Compound 2, N-Ethyl-1H-pyrazole-4-carboxamide]
Mab TrmD [3]
  ΔTm: < 0.5 °C

## CN1CCCC(Cn2ccc3ccc(-c4[nH]nc(N)c4C#N)cc32)C1 (stereo not drawn) [Compound 26o, 3-Amino-5-(1-((1-methylpiperidin-3-yl)methyl)-1H-indol-6-yl)-1H-pyrazole-4-carbonitrile]
Mab TrmD [2]; Table 5
  GE (R^1): 0.20 kcal mol^–1 per heavy atom
  LE: 0.35 kcal mol^–1 per heavy atom
Mab TrmD [2]
  LE: 0.35 kcal mol^–1 per heavy atom

## COc1cccc(Cn2ccc3ccc(-c4cc(N)n[nH]4)cc32)c1 [Compound 24b, 5-(1-(3-Methoxybenzyl)-1H-indol-6-yl)-1H-pyrazol-3-amine]
Mab TrmD [2]; Table 4
  GE (R^1): 0.14 kcal mol^–1 per heavy atom
  LE: 0.28 kcal mol^–1 per heavy atom
Mab TrmD [2]
  GE: 0.14 kcal mol^–1 per heavy atom
  LE: 0.28 kcal mol^–1 per heavy atom

## Nc1cc(-c2ccccc2)n[nH]1 [Compound 17, 5-phenyl-1H-pyrazol-3-amine]
Mab TrmD [4]
  thermal shift (ΔTm): 1.4–1.5 °C
  ΔTm: +1.5 °C

## Nc1cc(-c2ccc3ccn(Cc4ccc(CN5CCCC5)cc4)c3c2)[nH]n1 [Compound 31a, 5-(1-(4-(Pyrrolidin-1-ylmethyl)benzyl)-1H-indol-6-yl)-1H-pyrazol-3-amine]
Mab TrmD [5]; Table 6
  LE: 0.31 kcal mol^–1 per heavy atom
Mab TrmD [2]; Table 6
  GE (CH2R^1): 0.36 kcal mol^–1 per heavy atom

## COc1cc(COC(=O)c2cn[nH]c2)cc(-c2cccnc2)c1 [Compound 14, 3-Methoxy-5-(pyridin-3-yl)benzyl 1H-Pyrazole-4-carboxylate]
Mab TrmD [2]; Table 2
  LE: 0.31 kcal mol^–1 per heavy atom
Mab TrmD [2]
  LE: 0.31 kcal mol^–1 per heavy atom
